In US11554174B2, “Methods for improved protection and delivery of aminothiols and analogs thereof” (THE BURLINGTON HC RESEARCH GROUP, INC., priority 2015, dated 2023):
Read-outs that look alike come from different tables or passages of the source.

Assays:
[1] = tested on: C3H/10T1/2 cells; conditions: 1 milliM; before, during and after radiation exposure; cited from earlier work
[2] = mouse, in vivo; cited from earlier work
[3] = mice, aminothiol delivered as the phosphorothioate, cited from earlier work
[4] = some in vitro studies; cited from earlier work
[5] = tested on: prostate cancer cells; conditions: literature reports; cited from earlier work
[6] = children; cited from earlier work
[7] = tested on: Sa-NH sarcoma cells; conditions: 50 mg/kg every other day for 6 days; 12 days without; cited from earlier work
[8] = tested on: normal cells (liver, kidney, small intestine); conditions: cited from earlier work
[9] = tested on: radiation-induced tumors; conditions: 400 mg/kg, 206 cGy gamma rays; cited from earlier work
[10] = tested on: Sa-NH tumors; conditions: cited from earlier work
[11] = tested on: HPRT gene in mouse splenocytes; conditions: cited from earlier work
[12] = tested on: radiation-induced tumors; conditions: WR2721 plus radiation; cited from earlier work
[13] = tested on: advanced malignant melanoma; conditions: cited from earlier work
[14] = tested on: angiostatin; conditions: cited from earlier work
[15] = tested on: TK6 human lymphoblastoid cells; type: cell-based; conditions: 1 milliM cyclophosphamide alone, 72 hours

In the case of `CNCCCNCCCS` [WR151326], the “protection factor against neoplastic transformation” value [1] is given as 1.8.
In the case of `NCCCNCCS` [WR-1065, 2-(3-aminopropylamino)-ethanethiol], the “100% effective radioprotective dose” value [2] is given as “about one half of the MTD”, the “protection factor against neoplastic transformation” value [1] is given as 3.23 and the “maximally tolerated dose (MTD)” value ([3]; i.p.) is given as 432 mg/kg BW. For the same compound, the “maximally tolerated dose (MTD)” value ([3]; p.o.) was 720 mg/kg BW and the lowest efficacious concentration [4] was at least 0.4 µM.
In the case of `NCCCNCCSP(=O)(O)O` [amifostine, S-2-(3-aminopropylamino)-ethylphosphorothioic Acid], the “effect upon prostate cancer cells” value [5] is listed as “radioprotective effect”, the “single doses with no untoward effects” value [6] is listed as “up to 2700 mg/m2” and the “time for tumors to reach ideal size for amputation” value [7] is listed as 13 days. The “level with no observable cytotoxicity” value ([8]; kidney (in vivo)) was > 17,000 picomol/10(6) cells, the “level with no observable cytotoxicity” value ([8]; liver (in vivo)) was > 7400 picomol/10(6) cells and the “level with no observable cytotoxicity” value ([8]; small intestine (in vivo)) was > 3000 picomol/10(6) cells. The “extension of total life expectancy” value [9] was 65 days, the “effect on pulmonary metastases” value ([10]; 50 mg/kg) was “reduced significantly” and the “effect on pulmonary metastases” value ([10]; 100 mg/kg) was “less effective”. The effect on metastases ([10]; 200 mg/kg) was “no effect”, the “reduction of cyclophosphamide-induced HPRT mutations” value [11] was 8 fold and the mice developing tumors [12] was 26%. The minor responses ([13]; combination of WR2721 and cisplatin, 3 out of 36 patients) was 8%, the partial response ([13]; combination of WR2721 and cisplatin) was 53% and the “change of angiostatin levels” value ([14]; 200 mg/ml (instead of 50 mg/ml)) was “did not change angiostatin levels”. For the same compound, the “increase of serum angiostatin levels” value ([14]; mouse, in vivo) was 4 fold.
In the case of `N.N.[Cl][Pt][Cl]` [cisplatin], the partial response ([13]; cisplatin alone) is listed as 10%.
`O=P1(N(CCCl)CCCl)NCCCO1` (stereo not drawn) [cyclophosphamide] gave a cell death [15] of 70%.
